From US20200237852A1, “Small Molecule Enhancers of Paneth Cell Function and Differentiation” (Massachusetts Institute of Technology, priority 2019, published 2020)

How the values were obtained:
[1] = system: ISC-enriched organoids in ENR+CD; test: 384-well secondary screen in ENR+CD incl. early vs. full treatment, secreted LYZ (LYZ.NS, LYZ.S); assay type: cell-based, C57BL/6 mice; conditions: ENR+CD, across all doses
Excerpt: We again assessed treatment effect size with replicate SSMD (using a difference between well replicates and median assay value for all same-plate control wells—see Materials and Methods, High-throughput screening: 384-well secondary screen format and early vs. full treatment analysis) and hits were considered statistically validated by an SSMD greater than the false-positive-derived cutoffs (βα1=0.89 for 8 replicates with alpha=0.05; see Materials and Methods, High-throughput screening: 384-well secondary screen format and early vs. full treatment analysis) for both LYZ.NS and LYZ.S assays (FIG. 7A). Per this new cutoff, 10 dose-treatment combinations corresponding to 7 small molecules were chosen as hits, with every passing dose-treatment having a greater than 0 ATP effect size.
For 384-well plate high-throughput screening, ISC-enriched organoids were passaged and split to single cells with TyrpLE (Thermo Fisher Scientific) and cultured for 2-3 days in ENR+CVY prior to transfer to a “2.5-D” 384-well plate culture system. To prepare for “2.5D” plating, cell-laden Matrigel and media were homogenized via mechanical disruption and centrifuged at 300 g for 3 min at 4° C. Supernatant was removed and the pellet washed and spun in basal culture medium repeatedly until the cloudy Matrigel above the cell pellet was gone. On the final wash, pellet was resuspended in basal culture medium, the number of organoids counted, and the cell pellet was resuspended in ENR+CD medium at ˜7 clusters/μL. 384-well plates were first filled with 10 μL of 70% Matrigel (30% basal media) coating in each well using a Tecan Evo 150 Liquid Handling Deck, and allowed to gel at 37° C. for 5 minutes. Then 30 μL of cell-laden media was plated at the center of each well of 384-well plates with the liquid handler, and the plates were spun down at 50 g for 1 minute to embed organoids on the Matrigel surface. Compound libraries were pinned into prepped cell plates using 50 nL pins into 30 μL media/well. Cells were cultured at 37° C. with 5% CO2 for six days in ENR+CD medium supplemented with the tested compounds with a media change at three days. On day six, lysozyme secretion and cell viability were assessed using Lysozyme Assay Kit (EnzChek) and CellTiter-Glo 3D Cell Viability Assay (Promega), respectively, according to the manufacturers' protocols. Briefly, screen plates were washed 3× with FluoroBrite basal media (2 mM GlutaMAX and 10 mM HEPES in FluoroBrite DMEM (Thermo Fisher Scientific)) using a BioTek 406 plate washer with 10 min incubations followed by a 1 min centrifugation at 200 g to settle media between washes. After removal of the third wash, 30 μL of non-stimulated FluoroBrite basal media was added to each screen well using a Tecan Evo 150 Liquid Handling Deck from a non-stimulated treatment master plate, and plates were incubated for 30 min at 37° C. After 30 minutes, the top 15 μL of media from each well of the screen plate was transferred to a non-stimulated LYZ assay plate containing 15 μL of 20× DQ LYZ assay working solution using a Tecan Evo 150 Liquid Handling Deck. The non-stimulated LYZ assay plate was covered, shaken for 10 min, incubated for 50 min at 37° C., then fluorescence measured (shake 10 s; […]/518 nm) using a Tecan M1000 Plate Reader. After the media transfer to the non-stimulated LYZ assay plate, the remaining media was removed from the screen plate and 30 μL of Stimulated FluoroBrite basal media (supplemented with 10 μM CCh) was added to each screen well using a Tecan Evo 150 Liquid Handling Deck from a stimulated treatment master plate, and plates were incubated for 30 min at 37° C. After 30 minutes, the top 15 μL of media from each well of the screen plate was transferred to a stimulated LYZ assay plate containing 15 μL of 20× DQ LYZ assay working solution using a Tecan Evo 150 Liquid Handling Deck. […]

[2] = system: conventional organoid (ENR); test: 384-well screen in conventional organoid (ENR), secreted LYZ (LYZ.NS, LYZ.S); assay type: cell-based, C57BL/6 mice; conditions: 6-day ENR differentiation compared with ENR+CD
6-day ENR+CD cells [3] = test: Cell pellet ATP after long-term (48-hour) treatment; assay type: cell-based, murine; conditions: low doses
Excerpt: (§1) We next sought to profile potential long-term modulators of differentiated PC survival and antimicrobial secretion, as well as gauge the interaction between long-term modulators and short-term induced secretion (via CCh). To accomplish this, we employed a similar set up as in the short-term experiment, with the exception that upon plating day 4 ENR+CD cells we additionally supplemented in either MDP, LPS, TNF-α, or IFN-γ for the additional 2 days in culture and assayed all conditions for both basal and CCh-induced LYZ secretion over 3 hours on day 6 of differentiation (FIG. 3A). […] Additionally, we see that the long-term addition reduces CCh-induced secretory function relative to the untreated control for all agents (FIG. 3D).
Small intestinal crypts were isolated from C57BL/6 mice of both sexes, aged between three to six months in all experiments. Crypts were then cultured in a Matrigel culture system. Briefly, crypts were resuspended in basal culture medium (Advanced DMEM/F12 with 2 mM GlutaMAX and 10 mM HEPES; Thermo Fisher Scientific) at a 1:1 ratio with Corning™ Matrigel™ Membrane Matrix—GFR (Fisher Scientific) and plated at the center of each well of 24-well plates. Following Matrigel polymerization, 500 μL of small intestinal crypt culture medium (basal media plus 100× N2 supplement, 50×B27 supplement; Life Technologies, 500× N-acetyl-L-cysteine; Sigma-Aldrich) supplemented with growth factors EGF—E (50 ng/mL, Life Technologies), Noggin—N (100 ng/mL, PeproTech) and R-spondin 1—R (500 ng/mL, PeproTech) and small molecules CHIR99021—C (3 μM, LC Laboratories) and valproic acid—V (1 mM, Sigma-Aldrich) was added to each well. ROCK inhibitor Y-27632—Y (10 μM, R&D Systems) was added for the first 2 days of culture. Cells were cultured at 37° C. with 5% CO2, and cell culture medium was changed every other day. After 6 days of culture, crypt organoids were isolated from Matrigel by mechanical dissociation. To expand enriched ISCs (ENR+CV/Y) or Paneth Cells (ENR+CD), organoids were cultured in 24-well plates, suspended in 40 uL 3-D gels (50-50 GFR MATRIGEL®, Basal culture media), with 500 uL of crypt media supplemented with necessary growth factors and small molecules. […]
For 96-well plate high-throughput screening, 4-day differentiated (ENR+CD) cell clusters in 3D Matrigel were transferred to a “2.5-D” 96-well plate culture system. […] On the last repeat, pellet was resuspended in basal culture medium, the number of cell clusters counted, and centrifuged at 300 g for 3 min at 4° C. […] At end time points (following 2 days in culture and 3 hours of stimulation), lysozyme secretion and cell viability were assessed using Lysozyme Assay Kit and CellTiter-Glo 3D Cell Viability Assay (Promega), respectively, according to the manufacturers' protocols. […]

6-day ENR+CD cells [4] = test: Long-term (48-hour) modulators of basal and CCh-induced LYZ secretion; assay type: cell-based, murine; conditions: 48-hour treatment, CCh-induced secretion over 3 hours on day 6
Excerpt: as §1
Small intestinal crypts were isolated from C57BL/6 mice of both sexes, aged between three to six months in all experiments. Crypts were then cultured in a Matrigel culture system. Briefly, crypts were resuspended in basal culture medium (Advanced DMEM/F12 with 2 mM GlutaMAX and 10 mM HEPES; Thermo Fisher Scientific) at a 1:1 ratio with Corning™ Matrigel™ Membrane Matrix—GFR (Fisher Scientific) and plated at the center of each well of 24-well plates. Following Matrigel polymerization, 500 μL of small intestinal crypt culture medium (basal media plus 100× N2 supplement, 50×B27 supplement; Life Technologies, 500× N-acetyl-L-cysteine; Sigma-Aldrich) supplemented with growth factors EGF—E (50 ng/mL, Life Technologies), Noggin—N (100 ng/mL, PeproTech) and R-spondin 1—R (500 ng/mL, PeproTech) and small molecules CHIR99021—C (3 μM, LC Laboratories) and valproic acid—V (1 mM, Sigma-Aldrich) was added to each well. ROCK inhibitor Y-27632—Y (10 μM, R&D Systems) was added for the first 2 days of culture. Cells were cultured at 37° C. with 5% CO2, and cell culture medium was changed every other day. After 6 days of culture, crypt organoids were isolated from Matrigel by mechanical dissociation. To expand enriched ISCs (ENR+CV/Y) or Paneth Cells (ENR+CD), organoids were cultured in 24-well plates, suspended in 40 uL 3-D gels (50-50 GFR MATRIGEL®, Basal culture media), with 500 uL of crypt media supplemented with necessary growth factors and small molecules. ROCK inhibitor (Y) was added for the first two days of ISC culture following reconstitution from cryopreservation or trypLE passaging to single cells. Cell culture medium was changed every other day. After 4 days of culture in ENR+CV, cell clusters were differentiated to PCs under the ENR+CD condition for 96-well short and long-term screens. For 384-well differentiation screens, 4-day ENR+CV clusters were passaged to single cells using trypLE, replated and expanded another 3 days in 3-D ENR+CVY and then passaged directly into screens.
For 96-well plate high-throughput screening, 4-day differentiated (ENR+CD) cell clusters in 3D Matrigel were transferred to a “2.5-D” 96-well plate culture system. Briefly, cell culture gel and medium were homogenized via mechanical disruption and centrifuged at 300 g for 3 min at 4° C. […] On the last repeat, pellet was resuspended in basal culture medium, the number of cell clusters counted, and centrifuged at 300 g for 3 min at 4° C. […] At end time points (following 2 days in culture and 3 hours of stimulation), lysozyme secretion and cell viability were assessed using Lysozyme Assay Kit and CellTiter-Glo 3D Cell Viability Assay (Promega), respectively, according to the manufacturers' protocols. […]

Compound: COc1ccc(C2CNC(=O)C2)cc1OC1CCCC1 (centres unmarked) [Rolipram]
- ATP-normalized LYZ assays (LYZ.NS/ATP, LYZ.S/ATP), early versus full treatment [1]: do not see a trend or significant difference

Compound: CCc1c(C(=O)C(N)=O)c2c(OCC(=O)O)cccc2n1Cc1ccccc1 [Varespladib]
- mean fold change in LYZ.NS/ATP and LYZ.S/ATP (LYZ secretion per cell) in ENR [2]: minimal effects in the ENR-only system

Compound: TNF-α
- SSMD effect size of increase in cell number (ATP) (6-day ENR+CD cells [3]): weak
- change in cell number (ATP rel. to ENR+CD) (6-day ENR+CD cells [3]): apparent increases in cell number
- effect size of reduction of CCh-induced secretory function relative to untreated control (6-day ENR+CD cells [4]): weak
